Some test systems named below: DMS 273 small cell lung; DMS 114 small cell lung; HOP-18 NSCLC; K-562 leukemia; DLD-1 colon; LOX IMVI melanoma; COLO 205 colon; M19-MEL melanoma; LXFL 529 NSCLC; CAKI-1 renal; XF 498 CNS; KM20L2 colon; BT-549 breast; MDA-N; SNB-78 CNS.
Assay in all cases: inhibition of tumour cell growth, NCI panel, 48 h

We go through 16 molecules from PubChem BioAssay (NCI).

Molecules are shown by their SMILES.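 Values below derive from 48-hour exposures of cells grown in 96-well plates, with endpoints linearly interpolated between the two concentrations bracketing the appropriate inhibition level. GI50 is the concentration that inhibits growth by half. Definition used: TGI = concentration required for complete inhibition of growth.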

With `C=CC(=O)NCNC(=O)C=C`, the TGI with DMS 273 small cell lung, with DMS 114 small cell lung, with HOP-18 NSCLC, with K-562 leukemia, in the assay with DLD-1 colon and in the assay on LOX IMVI melanoma was over 100 µM throughout. Further, the TGI in the assay on COLO 205 colon, in the assay with M19-MEL melanoma, with LXFL 529 NSCLC, in the assay with CAKI-1 renal, with XF 498 CNS and with KM20L2 colon was over 100 µM in each case.
`COc1cc(/C=C/C(=O)c2ccc(F)cc2)ccc1OCCCCCOc1cc2c(cc1OC)C(=O)N1CCCC1C=N2` (stereo not drawn): the GI50 with K-562 leukemia is 30.6 nM; in the assay on COLO 205 colon, under 15.1 nM; in the assay on BT-549 breast, 21.4 nM. Moreover, the TGI in the assay on COLO 205 colon stood at 0.043 µM; with BT-549 breast, 0.0974 µM.
Consider `Cc1cc(C)c(NC(=O)/C=C/c2ccccc2)c(C)c1`, for which the TGI with K-562 leukemia and in the assay on BT-549 breast was over 100 µM each time.
Regarding `OCC1OC(n2cnc3c(SCc4ccccc4)ncnc32)C(O)C1O` (stereo not drawn), the TGI in the assay on K-562 leukemia was over 100 µM; with LOX IMVI melanoma, over 100 µM; in the assay on COLO 205 colon, over 94.9 µM; in the assay with CAKI-1 renal, over 100 µM; in the assay with MDA-N, over 100 µM; in the assay with BT-549 breast it was over 100 µM.
`CC(C)OC(=O)NNc1cccc(Cl)c1`: the TGI in the assay with K-562 leukemia, with LOX IMVI melanoma, in the assay with COLO 205 colon, with CAKI-1 renal and in the assay on MDA-N was over 100 µM each time.
In the case of `Oc1c(Cl)c(Cl)c(O)c(CCNc2nccs2)c1Cl`, the TGI in the assay on K-562 leukemia was over 100 µM; with COLO 205 colon, 57.9 µM; in the assay on CAKI-1 renal, 29.3 µM.
With `Cc1cccc(N=C/C=C(\Cl)c2ccc3ccccc3c2)c1`, the TGI in the assay with K-562 leukemia stood at 40 µM; in the assay on LOX IMVI melanoma, 9.27 µM; in the assay on COLO 205 colon, 45.8 µM; in the assay on CAKI-1 renal, 34.5 µM; with BT-549 breast it was 44.5 µM.
For `CN1CCN(c2ccc3[nH]c(C4=C(O)C(=O)[C@@H]5C(=C4O)N=C(CO)N5C)nc3n2)CC1`, in that order: over 100 µM, over 100 µM, over 100 µM, over 100 µM and over 100 µM.
Regarding `CC(=O)N=c1ccc2nc(N)nn(O)c-2c1`, the TGI in the assay on K-562 leukemia, in the assay with LOX IMVI melanoma, in the assay with COLO 205 colon, in the assay with CAKI-1 renal, in the assay on MDA-N and in the assay on BT-549 breast was over 100 µM each time.
As for `CCCCCCCCCC/C=C/C=O`, the TGI with DMS 273 small cell lung, in the assay on DMS 114 small cell lung, in the assay on HOP-18 NSCLC, in the assay with K-562 leukemia, in the assay on SNB-78 CNS and in the assay on DLD-1 colon was over 100 µM each time. Besides, the TGI with LOX IMVI melanoma, in the assay on COLO 205 colon, in the assay on M19-MEL melanoma, with LXFL 529 NSCLC, with XF 498 CNS and with KM20L2 colon was over 100 µM in each case.
As for `C/C(=N\O)C1CC2C=C(C#N)C1N(Cc1ccccc1)C2` (stereo not drawn), the TGI with K-562 leukemia, with LOX IMVI melanoma, in the assay with COLO 205 colon, in the assay on CAKI-1 renal and in the assay on MDA-N was over 100 µM in each case.
`O=C(c1ccccc1)C(Nc1ccc2ccccc2c1)c1ccccc1` (stereo not drawn): the TGI with K-562 leukemia was over 87.6 µM; in the assay with LOX IMVI melanoma, over 100 µM; in the assay on COLO 205 colon, 33.7 µM; with CAKI-1 renal, over 100 µM; in the assay with MDA-N it was over 100 µM; in the assay on BT-549 breast it was over 100 µM.
For `COc1cc2cc3c4cc(OC)c(OC)cc4cc[n+]3c(C)c2cc1OC`, the TGI in the assay on K-562 leukemia, with LOX IMVI melanoma, in the assay with COLO 205 colon, with CAKI-1 renal, in the assay with MDA-N and in the assay with BT-549 breast was over 100 µM in each case.
For the molecule `COCC12CCC(OC)C34C5CC6(O)C(OC)C=C(C5C6OC(=O)c5ccccc5)C(C(OC)C13)C4N(C)C2` (stereo not drawn), the TGI in the assay with LOX IMVI melanoma, in the assay with COLO 205 colon, with CAKI-1 renal, in the assay on MDA-N and in the assay on BT-549 breast was over 100 µM in each case.
Regarding `CCP(=O)(CC)C(Cl)(Cl)C(O)C(Cl)(Cl)Cl` (stereo not drawn), the TGI in the assay on K-562 leukemia, in the assay with LOX IMVI melanoma, with COLO 205 colon, in the assay with CAKI-1 renal and with MDA-N was over 100 µM in each case.
Turning to `[N-]=[N+]=CC(=O)OCC1NC(=O)C(COC(=O)C=[N+]=[N-])NC1=O` (stereo not drawn), the TGI in the assay on K-562 leukemia, with LOX IMVI melanoma, in the assay on COLO 205 colon, with CAKI-1 renal and in the assay on MDA-N was over 100 µM in each case.
